Experimental data taken from patent US10160785B2, “Antimicrobial peptides and their use for the treatment of topical infections” (priority 2015, dated 2018).
Values after ≈ are worked out from the molar mass of the structure shown. Where a SMILES comes first, the peptide text is derived from it.

Experiments:
[1] = tested on: Candida tropicalis ATCC 750; experiment: microbe, parasite or virus in culture; type: cell-based; conditions: Candida tropicalis, ATCC750; RPMI broth microdilution, 35° C., 48 hours, visual; read-out: Antifungal activity MIC C. tropicalis ATCC 750
Experimental: (§1) All yeasts Candida albicans (Olomouc) and ATCC MYA-2876, Candida glabrata ATCC 2001 and DSY 565, Candida dubliniensis ATCC MYA-646, Candida krusei ATCC 6258 and Candida tropicalis ATCC 750 were sub-cultured from sterile vials onto Sabouraud dextrose agar, which was composed of 40 g dextrose (Penta, Czech Republic), 10 g peptone (OXOID, Great Britain) and 17 g agar (OXOID), dissolved in 1 l of distilled water, and cultivated for 24 hours at 35° C.
(§2) All strains were stored in a way that minimizes the possibility of mutation. Candida spp. were grown overnight in liquid YPD medium which is composed of 10 g yeast extract (DIFCO, USA), 20 g peptone (OXOID), and 20 g dextrose (Penta) dissolved in 1 l distilled water. Then the overnight culture was cryogenically preserved by suspending in 50% glycerol solution (1:1) in small vials and stored at −80° C.
(§3) The inoculum was prepared by picking five colonies from 24-hour-old cultures of Candida spp. The colonies were suspended in 1 ml of sterile saline solution and vortexed for 15 seconds. Optical density of the suspension was adjusted spectrophotometrically by adding sterile saline solution to produce optical density of 0.18 at 600 nm. A working suspension was made by a 1:50 dilution followed by a 1:20 dilution of the stock suspension with RPMI 1640 broth medium which was composed of L-glutamine without NaHCO3 (BioSera, France), and with 0.165 mol.l^−1 MOPS (Duchefa, Netherland)—further as RPMI broth medium.
(§4) The broth microdilution test was performed by using sterile, disposable, multi-well microdilution plates (96-well). The peptides in the concentrations 0.625-160 μmol.l^−1 were pipetted into the wells in 100 μl volumes. Each well of the plate was inoculated with 100 μl of the diluted inoculum suspension. Final yeast density in each well was 5×10^2 up to 2.5×10^3 CFU/ml. The microdilution plates were incubated without shaking at 35° C. and observed for the presence or absence of visible growth for 48 hours.
(§5) Drug-free medium without inoculation served as negative control; the growth positive control contained inoculated drug-free medium. Amphotericin B was used as control drug to ensure quality of Candida strains.
(§6) The minimal inhibition concentrations (MICs) were visually determined 48 hours after inoculation. The MIC values were defined as the lowest concentration in which no observable growth is noticeable.
(§7) All yeast isolates were obtained from the Institute of Physiology of the Academy of Sciences of the Czech Republic. Candida albicans (Olomouc) came from the Faculty of Medicine and Dentistry, Palacý University Olomouc.

[2] = tested on: Candida albicans (Olomouc); experiment: microbe, parasite or virus in culture; type: cell-based; conditions: Candida albicans; RPMI broth microdilution, 35° C., 48 hours, visual; read-out: Antifungal activity MIC C. albicans Olomouc
Experimental: as §1, §2, §3, §4, §5, §6, §7

[3] = tested on: Candida glabrata ATCC 2001; experiment: microbe, parasite or virus in culture; type: cell-based; conditions: Nakaseomyces glabratus, ATCC2001; RPMI broth microdilution, 35° C., 48 hours, visual; read-out: Antifungal activity MIC C. glabrata ATCC 2001
Experimental: as §1, §2, §3, §4, §5, §6, §7

[4] = tested on: Candida glabrata DSY 565; experiment: microbe, parasite or virus in culture; type: cell-based; conditions: Nakaseomyces glabratus, DSY565; RPMI broth microdilution, 35° C., 48 hours, visual; read-out: Antifungal activity MIC C. glabrata DSY 565
Experimental: as §1, §2, §3, §4, §5, §6, §7

[5] = tested on: Candida krusei ATCC 6258; experiment: microbe, parasite or virus in culture; type: cell-based; conditions: Pichia kudriavzevii, ATCC6258; RPMI broth microdilution, 35° C., 48 hours, visual; read-out: Antifungal activity MIC C. krusei ATCC 6258
Experimental: as §1, §2, §3, §4, §5, §6, §7

[6] = tested on: Candida dubliniensis ATCC MYA-646; experiment: microbe, parasite or virus in culture; type: cell-based; conditions: Candida dubliniensis; RPMI broth microdilution, 35° C., 48 hours, visual; read-out: Antifungal activity MIC C. dubliniensis ATCC MYA-646
Experimental: as §1, §2, §3, §4, §5, §6, §7

[7] = tested on: Candida albicans ATCC MYA-2876; experiment: microbe, parasite or virus in culture; type: cell-based; conditions: Candida albicans; RPMI broth microdilution, 35° C., 48 hours, visual; read-out: Antifungal activity MIC C. albicans ATCC MYA-2876
Experimental: as §1, §2, §3, §4, §5, §6, §7

[8] = tested on: Candida albicans (Olomouc) biofilm; experiment: C. albicans biofilm, remaining metabolic activity (XTT); type: cell-based
Experimental: Candida albicans (Olomouc) was sub-cultured overnight in YPD medium (10 g yeast extract (DIFCO, USA), 20 g peptone (OXOID), 20 g glucose (Penta) dissolved in 1 L of distilled water) at constant shaking (100 RPM) at 37° C. Next day, the overnight culture was diluted 1:100 into fresh YPD medium and incubated at constant shaking (200 RPM) at 37° C. until the mid-exponential growth phase was reached. Then the cells were harvested and washed twice by centrifugation in physiological solution (5000 RPM; 5 min). Cells were suspended in sterile salt solution and their optical density was determined at 600 nm.
A final yeast suspension was prepared at a cell density of 1×10^6 CFU (corresponding to optical density of 0.17 at 600 nm) in RPMI 1640 medium with L-glutamine (BioSera), NaHCO3 (2 g/l; Penta) and 0.165 mol.l^−1 MOPS (Duchefa)—further as RPMI broth medium 1.
Biofilms were formed on commercially available sterile, polystyrene, flat-bottomed, 96-well microtiter plates (TPP, SW). Cell suspension (100 μl) was pipetted into selected wells of a microtiter plate and incubated without shaking for 2 hours at 37° C. Afterwards, the wells were washed twice with sterile PBS buffer (1.44 g Na2HPO4, 0.24 g KH2PO4, 0.2 g KCl and 8 g NaCl in 1 l distilled water, pH=7; Penta). Fresh RPMI broth medium 1 (100 μl) was added to each well and the plate was sealed with parafilm and incubated without shaking for 48 hours at 37° C.
Planktonic and non-adherent cells were removed by threefold washing of the biofilm with sterile PBS buffer (200 μl). A twofold serial dilution was used to reach required peptide concentration (in RPMI broth medium 1) in each well. Peptide concentrations range was between 0.39-200 μmol.l^−1. Plates were then sealed with parafilm and incubated for 20 hours at 37° C.
The metabolic activity of surviving Candida cells in the treated biofilm was determined by staining with XTT (2,3-Bis(2-methoxy-4-nitro-5-sulphophenyl)-2H-tetrazolium-5-carboxanilide). Stock solution of PMS (phenazine methosulfate; 7.5 g/l; SIGMA, Czech Republic) stored at −20° C. was diluted in PBS buffer 1:100. Diluted PMS was further mixed (2:25) with stock solution of XTT (0.5 g/l; Alchimica, Slovakia) dissolved in PBS/RPMI broth medium (1:1). Mixture (100 μl) of PMS and XTT was added into treated biofilm in the wells and incubated for 90 min at 37° C. Then the intensity of staining in each well was measured as absorbance at 540 nm on a Tecan Infinite M200 Pro reader (Tecan GmbH, Austria). Remaining metabolic activity of the cells in the biofilm was expressed for each well in percentage and calculated as follows:
[formula] where A is the absorbance of tested compound, ABL is the absorbance of negative control and AC is the absorbance of control untreated biofilm. The non-inoculated wells served as negative control. Inoculated wells not treated with compound served as positive control. Amphotericin B was used as control drug to ensure quality of Candida albicans. The values of remaining metabolic activity of treated biofilms are shown at Table 5.

[9] = tested on: S. aureus (Liberec) biofilm; experiment: Bacterial biofilm, remaining metabolic activity (MTT); type: cell-based, Staphylococcus aureus; conditions: remaining metabolic activity of biofilm, 20 h
Experimental: (§8) Inoculum of S. aureus (Liberec) or P. aeruginosa (Liberec) cultivated overnight in BHI medium was diluted with fresh BHI medium containing 1% glucose to a final concentration to be ca. 10^8 CFU/ml. Then this was pipetted (100 μl) to 96-multiwell polystyrene plate which was incubated at 37° C. under rotary shaking (300 RPM) for 24 h. Medium without bacteria in the wells was used as a negative control. Supernatant from each well was drained and the biofilm formed on the bottom and on the walls of the wells was cautiously washed three times by sterile physiological solution (300 μl). The peptides tested in the concentrations of 1-128 μmol.l^−1 were prepared by twofold serial dilution of their stock solution (1 mmol.l^−1) in fresh BHI medium and then pipetted (100 μl) to the wells with formed biofilms. The biofilms covered by BHI medium without peptide were used as a positive control. The plates were then incubated for 20 h as described above. After that the liquid was drained out and wells were washed twice with sterile physiological solution.
(§9) The metabolic activity of surviving bacterial cells in the biofilm was determined by staining with MTT (3-(4,5-dimethylthiazol-2-yl)-2,5-diphenyl-2H-tetrazolium bromide) as follows: The mixture of BHI medium (100 μl) and 10 μl of the stock solution of MTT (5 mg/ml in physiological solution) was added to each well and the plate was incubated 40 min at 37° C. The liquid was drained out and the insoluble formazan crystals formed by reduction inside the biofilm were dissolved with dimethyl sulphoxide (100 μl). The intensity of staining in each well was measured as absorbance at 540 nm on a Tecan Infinite M200 Pro reader (Tecan GmbH, Austria). Remaining activity of surviving cells inside the biofilm was expressed for each well in percentage according to the following equation:
(§10) [formula] where A is the absorbance of the tested compound, ABL is the absorbance of the negative control, and AC is the absorbance of control biofilm.

[10] = in vitro; conditions: human
Experimental: The peptides in the concentrations 2-200 μmol.l^−1 were incubated with the suspension of human red blood cells (5% v/v) for 1 h at 37° C. in a physiological solution at a final volume of 0.2 ml. The samples were then centrifuged for 5 min at 250 g, and the absorbance of the supernatant was determined at 540 nm. Supernatants of red blood cells suspended in physiological solution and in 0.2% (v/v) TRITON X100 in physiological solution served as controls for zero hemolysis (blank) and 100% hemolysis, respectively. Hemolytic activity is expressed as the peptide concentration required for lysis of 50% of human erythrocytes in the assay (LC50).

[11] = tested on: P. aeruginosa (Liberec) biofilm; experiment: Bacterial biofilm, remaining metabolic activity (MTT); type: cell-based, Pseudomonas aeruginosa; conditions: remaining metabolic activity of biofilm, 20 h
Experimental: as §8, §9, §10

[12] = peptide concentration 6.25 μmol · l^−1, 20 hours
[13] = peptide concentration 12.5 μmol · l^−1, 20 hours
[14] = peptide concentration 25 μmol · l^−1, 20 hours
[15] = peptide concentration 50 μmol · l^−1, 20 hours
[16] = peptide concentration 100 μmol · l^−1, 20 hours
[17] = peptide concentration 200 μmol · l^−1, 20 hours
[18] = peptide concentration 8 μmol · l^−1
[19] = peptide concentration 16 μmol · l^−1
[20] = peptide concentration 32 μmol · l^−1
[21] = peptide concentration 64 μmol · l^−1
[22] = peptide concentration 128 μmol · l^−1

| Compound | Metabolic activity of C. albicans (%) [8, 12] [%] | Metabolic activity of C. albicans (%) [8, 13] [%] | Metabolic activity of C. albicans (%) [8, 14] [%] | Metabolic activity of C. albicans (%) [8, 15] [%] | Metabolic activity of C. albicans (%) [8, 16] [%] | Metabolic activity of C. albicans (%) [8, 17] [%] | Metabolic activity (%) S. aureus (Liberec) [9, 18] [%] | Metabolic activity (%) S. aureus (Liberec) [9, 19] [%] | Metabolic activity (%) S. aureus (Liberec) [9, 20] [%] | Metabolic activity (%) S. aureus (Liberec) [9, 21] [%] | Metabolic activity (%) S. aureus (Liberec) [9, 22] [%] | CC50 at 1 h [10] [µM] | Metabolic activity (%) P. aeruginosa (Liberec) [11, 18] [%] | Metabolic activity (%) P. aeruginosa (Liberec) [11, 19] [%] | Metabolic activity (%) P. aeruginosa (Liberec) [11, 20] [%] | Metabolic activity (%) P. aeruginosa (Liberec) [11, 21] [%] | Metabolic activity (%) P. aeruginosa (Liberec) [11, 22] [%] | other results |
| --- | --- | --- | --- | --- | --- | --- | --- | --- | --- | --- | --- | --- | --- | --- | --- | --- | --- | --- |
| Clc1ccccc1C(c1ccccc1)(c1ccccc1)n1ccnc1 [Clotrimazole, reference compound] | 39.7 | 37.6 | 34.2 | 28.4 | 21.8 | 22.2 | – | – | – | – | – | – | – | – | – | – | – | MIC [1]: 4.6 µM (≈ 1.59 µg/mL); MIC [2]: 0.4 µM (≈ 0.138 µg/mL); MIC [3]: 14.2 µM (≈ 4.9 µg/mL); MIC [4]: 35 µM (≈ 12.1 µg/mL); MIC [5]: 1 µM (≈ 0.345 µg/mL); MIC [6]: 1.4 µM (≈ 0.483 µg/mL); MIC [7]: 0.3 µM (≈ 0.103 µg/mL) |
| CC[C@@H](C)[C@@H](NC(=O)CN)C(=O)N[C@H](CC(C)C)C(=O)N[C@H](CO)C(=O)N[C@H](CO)C(=O)N[C@H](CC(C)C)C(=O)N[C@H](CC(C)C)C(=O)N[C@H](CCCCN)C(=O)N[C@H](CCCCN)C(=O)N[C@H](CC(C)C)C(=O)N[C@H](CCCCN)C(=O)N[C@H](CCCCN)C(=O)N[C@@H](C(=O)N[C@@H](C(=O)N[C@H](C)C(=O)N[C@H](CCCCN)C(N)=O)[C@H](C)CC)[C@H](C)CC [IV] (HELM PEPTIDE1{G.[dI].[dL].[dS].[dS].[dL].[dL].[dK].[dK].[dL].[dK].[dK].[dI].[dI].[dA].[dK].[am]}$$$$V2.0) | 106.9 | 37.2 | 6.0 | 2.3 | 2.1 | 0.5 | 65.5 | 34.2 | 7.1 | 3.0 | 0.0 | 333 | 56.5 | 69.5 | 56.0 | 59.6 | 21.7 | – |
| H-GIMSSLMKKLKKIIAK-NH2 [I] | 100.4 | 108.0 | 130.7 | 57.5 | 28.2 | 8.1 | 111.6 | 103.3 | 111.2 | 101.9 | 11.4 | > 400 | 86.4 | 87.7 | 89.6 | 62.9 | 43.4 | – |
